Data published in publication PMC8400033, “A Multicomponent Protocol for the Synthesis of Highly Functionalized γ-Lactam Derivatives and Their Applications as Antiproliferative Agents” (Pharmaceuticals, 2021).
Read-outs that look alike come from different tables or passages of the source.

Columns and labels:
[1] = test system: A549 (carcinomic human alveolar basal epithelial cell); experiment: CCK-8 antiproliferative assay, A549 cell line; format: cell-based
Protocol: (§1) In vitro cytotoxicity of the γ-lactam derivatives was evaluated by testing their antiproliferative activities against several human cancer cell lines. Cell counting kit (CCK-8) assay was used for the evaluation of growth inhibition.
(§2) All stock solutions of the investigated compounds were prepared by dissolving the powdered materials in appropriate amounts of DMSO. The final concentration of DMSO never exceeded 5% (v/v) in reactions. The stock solution was stored at 5 °C until it was used.
(§3) All were supplemented with 10% of fetal bovine serum (FBS) (Sigma-Aldrich, Madrid, Spain) and with 1% of NORMOCIN solution (Thermo Fisher, Waltham, Massachusetts, MA, USA). […] For cytotoxicity experiments, A549 cells were seeded in 96-well plates at a density of 2.5–3 × 10^3 cells per well and incubated overnight to achieve 70% of confluence at the time of exposition to the cytotoxic compound.
(§4) Both were supplemented with 10% of fetal bovine serum (FBS) (Sigma-Aldrich, Spain) and with 1% of NORMOCIN solution (Thermo Fisher, Waltham, Massachusetts, MA, USA). […] For cytotoxicity experiments, A549 cells were seeded in 96-well plates at a density of 2.5–3 × 10^3 cells per well and incubated overnight to achieve 70% of confluence at the time of exposition to the cytotoxic compound.

[2] = test system: SKOV3 (human ovarian carcinoma); experiment: CCK-8 antiproliferative assay, SKOV3 cell line
Protocol: as §1, §2, §3

[3] = test system: MRC5 non-malignant lung fibroblasts; experiment: CCK-8 assay on non-malignant cells for selective toxicity; format: cell-based; conditions: Homo sapiens
Protocol: as §1, §2, §3, §4

[4] = test system: RKO (human colon epithelial carcinoma); experiment: CCK-8 antiproliferative assay, RKO cell line; format: cell-based
Protocol: as §1, §2, §3

[5] = Solubility in solvents compatible with in vitro assays; format: physicochemical; conditions: in words
[6] = Homo sapiens, A549, A549 cell line, CCK-8, read-out: IC50 A549
[7] = Homo sapiens, SK-OV-3, read-out: IC50 SKOV3, SKOV3 cell line, CCK-8
[8] = MRC5 non-malignant lung fibroblasts, CCK-8, read-out: IC50 MRC5
[9] = Homo sapiens, SK-OV-3, read-out: IC50 SKOV3
[10] = Homo sapiens, A549, read-out: IC50 A549
[11] = Homo sapiens, A549, read-out: IC50 of individual enantiomers of 4v

IC50 [2, 7] [µM]	SMILES	IC50 [1, 6] [µM]	IC50 [3, 8] [µM]	also measured
> 50	Cc1ccc(NC2=CC(c3ccc(C)cc3)N(c3ccc(C)cc3)C2=O)cc1 (stereo not drawn) [4c]	21 ± 1.64	> 50	melting point: 210 to 213 °C
> 50	Cc1ccc(NC2=CC(c3cccc(C)c3)N(c3ccc(C)cc3)C2=O)cc1 (stereo not drawn) [4d]	31.2 ± 1.04	> 50	–
> 50	Cc1ccc(NC2=CC(c3ccccc3C)N(c3ccc(C)cc3)C2=O)cc1 (stereo not drawn) [4e]	41.3 ± 1.29	> 50	–
23.5 ± 0.75	Cc1ccc(NC2=CC(c3ccc(F)cc3)N(c3ccc(C)cc3)C2=O)cc1 (stereo not drawn) [4f]	10.7 ± 1.21	> 50	–
22.9 ± 0.63	Cc1ccc(NC2=CC(c3ccc([N+](=O)[O-])cc3)N(c3ccc(C)cc3)C2=O)cc1 (stereo not drawn) [4g]	17.1 ± 1.58	26.6 ± 2.89	IC50 [4]: 23.8 ± 2.53 µM
27.7 ± 1.32	Cc1ccc(NC2=CC(c3cccc([N+](=O)[O-])c3)N(c3ccc(C)cc3)C2=O)cc1 (stereo not drawn) [4h]	7.33 ± 0.57	27.2 ± 1.24	–
> 50	Cc1ccc(NC2=CC(c3ccc(C(F)(F)F)cc3)N(c3ccc(C)cc3)C2=O)cc1 (stereo not drawn) [4i]	> 50	–	IC50 [4]: > 50 µM
> 50	Cc1ccc(NC2=CC(c3ccc4ccn(C)c4c3)N(c3ccc(C)cc3)C2=O)cc1 (stereo not drawn) [4j]	19.3 ± 0.7	> 50	–
30.5 ± 1.34	Cc1ccc(NC2=CC(c3ccc4ccccc4c3)N(c3ccc(C)cc3)C2=O)cc1 (stereo not drawn) [4m]	12.1 ± 0.74	21.3 ± 0.74	–
> 50	CC1=C(Nc2ccc(C)cc2)C(=O)N(c2ccc(C)cc2)C1c1ccc([N+](=O)[O-])cc1 (stereo not drawn) [5a]	2.05 ± 0.23	> 50	–
> 50	Cc1ccc(NC2=C(Cc3ccccc3)C(c3ccc([N+](=O)[O-])cc3)N(c3ccc(C)cc3)C2=O)cc1 (stereo not drawn) [5b]	9.92 ± 1.15	47.6 ± 1.67	–
6.84 ± 0.59	COc1ccc(NC2=CC(c3ccccc3)N(c3ccc(OC)cc3)C2=O)cc1 (stereo not drawn) [6a]	12 ± 1.96	> 50	–
> 50	COc1ccc(NC2=CC(c3ccc([N+](=O)[O-])cc3)N(c3ccc(OC)cc3)C2=O)cc1 (stereo not drawn) [6b]	31.5 ± 1.37	> 50	IC50 [4]: > 50 µM
> 50	O=C1C(Nc2ccc(Br)cc2)=CC(c2ccc([N+](=O)[O-])cc2)N1c1ccc(Br)cc1 (stereo not drawn) [8a]	> 50	–	–
> 50	O=C1C(Nc2ccc(Br)cc2)=CC(c2ccc(C(F)(F)F)cc2)N1c1ccc(Br)cc1 (stereo not drawn) [8b]	> 50	–	IC50 [4]: > 50 µM
8.5 ± 0.54	O=C1C(Nc2cccc(C(F)(F)F)c2)=CC(c2ccc([N+](=O)[O-])cc2)N1c1cccc(C(F)(F)F)c1 (stereo not drawn) [11b]	2 ± 0.78	44.6 ± 1.16	–
> 50	O=C1C(Nc2ccc3ccccc3n2)=CC(c2ccc([N+](=O)[O-])cc2)N1c1ccc2ccccc2n1 (stereo not drawn) [12a]	9.25 ± 1.49	> 50	Cytotoxic activity against SKOV3 cell line, in words [2]: No activity
> 50	O=C1C(Nc2ccc(Cl)cc2)=CC(c2ccc([N+](=O)[O-])cc2)N1c1ccc(Cl)cc1 (stereo not drawn) [compound 7]	17.2 ± 2.1	> 50	–
16.1 ± 0.81	O=C1C(Nc2cccc(Cl)c2)=CC(c2ccc([N+](=O)[O-])cc2)N1c1cccc(Cl)c1 (stereo not drawn) [compound 9]	8.37 ± 1.27	23.8 ± 1.75	–
5.55 ± 0.62	O=C1C(Nc2ccccc2F)=CC(c2ccc([N+](=O)[O-])cc2)N1c1ccccc1F (stereo not drawn) [compound 10]	4.36 ± 0.51	> 50	–

Second part, the compound before the results:

SMILES	IC50 [2, 7] [µM]	IC50 [1, 6] [µM]	IC50 [3, 8] [µM]	also measured
CCOC(=O)[C@]1(C)C[C@@H](Nc2ccc(C)cc2)C(=O)N1c1ccc(C)cc1 (relative stereo) [compound 17, Ethyl (2S*, 4R*)-2-methyl-5-oxo-1-(p-tolyl)-4-(p-tolylamino)-pyrrolidine-2-carboxylate]	> 50	> 50	–	melting point: 173 to 174 °C
Cc1ccc(NC2=CCN(c3ccc(C)cc3)C2=O)cc1 [4a, 1-(p-Tolyl)-3-(p-tolylamino)-1,5-dihydro-2H-pyrrol-2-one]	–	–	> 50	melting point: 178 to 180 °C; Cytotoxic activity against SKOV3 cell line, in words [2]: did not show activity; IC50 [2, 9]: > 50 µM
Cc1ccc(NC2=CC(c3ccco3)N(c3ccc(C)cc3)C2=O)cc1 (stereo not drawn) [4k]	> 50	11.5 ± 0.85	> 50	–
Cc1ccc(NC2=CC(c3cccs3)N(c3ccc(C)cc3)C2=O)cc1 (stereo not drawn) [4l]	12.7 ± 1.83	12.7 ± 1.07	> 50	–
Cc1ccc(NC2=CC(C)N(c3ccc(C)cc3)C2=O)cc1 (stereo not drawn) [4n]	29.2 ± 1	15.7 ± 0.92	> 50	–
Cc1ccc(NC2=CC(C(C)C)N(c3ccc(C)cc3)C2=O)cc1 (stereo not drawn) [4o]	> 50	11.1 ± 0.71	> 50	–
Cc1ccc(NC2=CC(CC(C)C)N(c3ccc(C)cc3)C2=O)cc1 (stereo not drawn) [4p]	> 50	20.1 ± 2	24.1 ± 1.64	melting point: 178 to 179 °C
Cc1ccc(NC2=CC(/C=C/c3ccccc3)N(c3ccc(C)cc3)C2=O)cc1 (stereo not drawn) [4r]	~10	~10	18.2 ± 0.81	IC50 ([1]; A549 cell line, CCK-8, read-out: IC50 A549): 10.3 ± 0.8 µM; IC50 ([2]; read-out: IC50 SKOV3, SKOV3 cell line, CCK-8): 9.59 ± 0.82 µM
Cc1ccc(NC2=CC(c3c(F)c(F)c(F)c(F)c3F)N(c3ccc(C)cc3)C2=O)cc1 (stereo not drawn) [4t]	> 50	33.5 ± 1.68	> 50	IC50 [4]: > 50 µM
Cc1ccc(NC2=CC(C(F)(F)F)N(c3ccc(C)cc3)C2=O)cc1 (stereo not drawn) [4u]	> 50	> 50	–	IC50 [4]: > 50 µM
CCOP(=O)(CC1C=C(Nc2ccc(C)cc2)C(=O)N1c1ccc(C)cc1)OCC (stereo not drawn) [4v]	–	–	–	IC50 [1, 10]: 11.3 ± 1.8 µM; IC50 [4]: > 50 µM; IC50 ([3]; MRC5, read-out: IC50 MRC5): > 50 µM; IC50 [2, 9]: > 50 µM
Cc1ccc(NC2=CC(CP(=O)(c3ccccc3)c3ccccc3)N(c3ccc(C)cc3)C2=O)cc1 (stereo not drawn) [4w]	10.8 ± 0.88	5.67 ± 0.9	30.1 ± 0.49	IC50 [4]: 28.1 ± 1.47 µM
COC(=O)C1=C(Nc2ccc(C)cc2)C(=O)N(c2ccc(C)cc2)C1c1ccccc1 (stereo not drawn) [5c]	–	–	> 50	melting point: 179 to 181 °C
CCOP(=O)(OCC)C1=C(Nc2ccc(C)cc2)C(=O)N(c2ccc(C)cc2)C1 [5d]	–	–	–	IC50 [1, 10]: > 50 µM; IC50 [4]: > 50 µM; IC50 ([3]; MRC5, read-out: IC50 MRC5): > 50 µM; IC50 [2, 9]: > 50 µM
Cc1ccc(NC2=C(P(=O)(c3ccccc3)c3ccccc3)CN(c3ccc(C)cc3)C2=O)cc1 [5e]	–	–	–	Solubility in the solvents compatible with the tests for in vitro assays [5]: low solubility
CCOP(=O)(CC1C=C(Nc2ccc(OC)cc2)C(=O)N1c1ccc(OC)cc1)OCC (stereo not drawn) [6c]	–	–	–	IC50 [1, 10]: 6.84 ± 0.22 µM; IC50 ([3]; MRC5, read-out: IC50 MRC5): > 50 µM; Cytotoxic activity against SKOV3 cell line, in words [2]: did not show any cytotoxicity; IC50 [2, 9]: > 50 µM
O=C1C(Nc2cccc(C(F)(F)F)c2)=CCN1c1cccc(C(F)(F)F)c1 [11a]	> 50	22.9 ± 1.13	> 50	melting point: 160 to 162 °C
Cc1ccc(N[C@@H]2C[C@H](C(F)(F)F)N(c3ccc(C)cc3)C2=O)cc1 [18a]	> 50	3.27 ± 0.65	> 50	–
CCOP(=O)(C[C@H]1C[C@@H](Nc2ccc(C)cc2)C(=O)N1c1ccc(C)cc1)OCC [18b]	–	–	–	IC50 [1, 10]: 4.25 ± 0.65 µM; IC50 [4]: > 50 µM; IC50 ([3]; MRC5, read-out: IC50 MRC5): > 50 µM; IC50 [2, 9]: > 50 µM
Cc1ccc(/N=C(/C=C/C=C/c2ccccc2)C(=O)Nc2ccc(C)cc2)cc1 [20a, (2Z, 3E, 5E)-6-Phenyl-N-(p-tolyl)-2-(p-tolylimino)hexa-3,5-dienamide]	> 50	6.9 ± 0.73	> 50	–
Cc1ccc(\N=C(/C=C/C=C/c2ccc(C(F)(F)F)cc2)C(=O)Nc2ccc(C)cc2)cc1 [20b]	> 50	9.77 ± 0.17	> 50	–
CCOP(=O)(C[C@H]1C=C(Nc2ccc(C)cc2)C(=O)N1c1ccc(C)cc1)OCC [(R)-4v]	–	–	–	IC50 [1, 11]: 9.23 ± 1.68 µM
CCOP(=O)(C[C@@H]1C=C(Nc2ccc(C)cc2)C(=O)N1c1ccc(C)cc1)OCC [(S)-4v]	–	–	–	IC50 [1, 11]: 10.5 ± 0.8 µM
COc1cccc2c1C(=O)c1c(O)c3c(c(O)c1C2=O)C[C@@](O)(C(=O)CO)C[C@@H]3O[C@H]1C[C@H](N)[C@H](O)[C@H](C)O1 [Doxorubicin, reference compound]	–	–	> 50	–
CCOC(=O)C1(C)C=C(Nc2ccc(C)cc2)C(=O)N1c1ccc(C)cc1 (stereo not drawn) [compound 16, Ethyl 2-methyl-5-oxo-1-(p-tolyl)-4-(p-tolylamino)-2,5-dihydro-1H-pyrrole-2-carboxylate]	> 50	14 ± 1.05	> 50	IC50 [4]: > 50 µM; melting point: 188 to 190 °C (dec.)
CCOP(=O)(CC1=C(C)C(C)(Nc2ccc(C)cc2)C(=O)N1c1ccc(C)cc1)OCC (stereo not drawn) [compound 19, Diethyl ((3,4-dimethyl-5-oxo-1-(p-tolyl)-4-(p-tolylamino)-4,5-dihydro-1H-pyrrol-2-yl)methyl)phosphonate]	–	–	–	IC50 [1, 10]: 3.65 ± 0.25 µM; IC50 [4]: > 50 µM; IC50 ([3]; MRC5, read-out: IC50 MRC5): > 50 µM; IC50 [2, 9]: > 50 µM
Cc1ccc(/N=C2/C=C(c3ccccc3)N(c3ccc(C)cc3)C2=O)cc1 [compound 21, (Z)-5-phenyl-1-(p-tolyl)-3-(p-tolylimino)-1,3-dihydro-2H-pyrrol-2-one]	16.7 ± 1.1	0.6 ± 0.08	6.12 ± 0.76	melting point: 207 °C (dec.)
